Laboratory results reported in patent US20050009840A1 (SUGEN, INC., priority 2003, published 2005).
Like-named read-outs stand apart in the source and are kept apart here.

Target: T1, HGFR (Homo sapiens, UniProt P08581)
T1 construct: purchased Upstate 14-526
Assay: HGFR continuous-coupled spectrophotometric assay
Assay type: biochemical
Details: read-out: % Inhibition (percent c-MET inhibition)

[1] = at 1 pM, Table 6, library procedure 41

T1 sequence (P08581 974-1390 limits assumed): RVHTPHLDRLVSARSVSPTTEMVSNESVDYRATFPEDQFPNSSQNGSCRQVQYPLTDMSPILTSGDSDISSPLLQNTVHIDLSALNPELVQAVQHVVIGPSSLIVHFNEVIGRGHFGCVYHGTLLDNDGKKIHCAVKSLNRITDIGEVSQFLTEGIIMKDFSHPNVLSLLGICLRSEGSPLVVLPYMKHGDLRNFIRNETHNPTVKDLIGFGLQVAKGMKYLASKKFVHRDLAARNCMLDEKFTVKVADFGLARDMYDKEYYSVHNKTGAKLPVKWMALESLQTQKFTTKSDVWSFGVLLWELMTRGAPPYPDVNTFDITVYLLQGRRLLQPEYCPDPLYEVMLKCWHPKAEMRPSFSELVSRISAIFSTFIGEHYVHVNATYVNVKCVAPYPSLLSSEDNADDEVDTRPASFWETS

SMILES | inhibition at 1 pM [1] | inhibition at 1 pM
CC(=O)N(C)C1CCN(C(=O)c2cnc(N)c(OCc3c(Cl)cccc3Cl)c2)C1 [Example L-213] | 31% | 
CC(O)CNC(=O)c1cnc(N)c(OCc2c(Cl)cccc2Cl)c1 [Example L-214] | 49% | 
Cc1cnc(CNC(=O)c2cnc(N)c(OCc3c(Cl)cccc3Cl)c2)cn1 [Example L-215] | 33% | 
NC(=O)N1CCN(C(=O)c2cnc(N)c(OCc3c(Cl)cccc3Cl)c2)CC1 [Example L-216] | 29% | 
Nc1ncc(C(=O)NCCCN2CCCC2=O)cc1OCc1c(Cl)cccc1Cl [Example L-217] | 34% | 
CC(CCCC(C)(C)O)NC(=O)c1cnc(N)c(OCc2c(Cl)cccc2Cl)c1 [Example L-218] | 35% | 
Nc1ncc(C(=O)NCCc2ccc(O)cc2)cc1OCc1c(Cl)cccc1Cl [Example L-219] | 34% | 
Nc1ncc(C(=O)NCc2ccc(F)cc2)cc1OCc1c(Cl)cccc1Cl [Example L-220] | 32% | 
CN(C)CCNC(=O)c1cnc(N)c(OCc2c(Cl)cccc2Cl)c1 [Example L-221] | 29% | 
CC(C)CCNC(=O)c1cnc(N)c(OCc2c(Cl)cccc2Cl)c1 [Example L-222] | 26% | 
Nc1ncc(C(=O)NCCc2c[nH]c3ccc(O)cc23)cc1OCc1c(Cl)cccc1Cl [Example L-223] | 29% | 
Nc1ncc(C(=O)NCC(F)(F)F)cc1OCc1c(Cl)cccc1Cl [Example L-224] | 30% | 
CN1CCC(N(C)C(=O)c2cnc(N)c(OCc3c(Cl)cccc3Cl)c2)C1 [Example L-225] | 33% | 
Nc1ncc(C(=O)NCc2ccc(OC(F)(F)F)cc2)cc1OCc1c(Cl)cccc1Cl [Example L-226] | 24% | 
Nc1ncc(C(=O)N2CCC(O)C2)cc1OCc1c(Cl)cccc1Cl [Example L-227] | 83% | 
Nc1ncc(C(=O)NC[C@H]2CCCC[C@H]2O)cc1OCc1c(Cl)cccc1Cl [Example L-228] | 24% | 
Nc1ncc(C(=O)N[C@@H]2CCCC[C@H]2CO)cc1OCc1c(Cl)cccc1Cl [Example L-229] | 24% | 
Nc1ncc(C(=O)N[C@@H]2c3ccccc3C[C@@H]2O)cc1OCc1c(Cl)cccc1Cl [Example L-230] | 23% | 
Nc1ncc(C(=O)N2CCC(O)(Cc3ccccc3)CC2)cc1OCc1c(Cl)cccc1Cl [Example L-231] | 62% | 
Nc1ncc(C(=O)N2CCC(=O)CC2)cc1OCc1c(Cl)cccc1Cl [Example L-232] |  | 44%
COc1cc(CCNC(=O)c2cnc(N)c(OCc3c(Cl)cccc3Cl)c2)ccc1O [Example L-233] | 32% | 
Nc1ncc(C(=O)NCC2COc3ccccc3O2)cc1OCc1c(Cl)cccc1Cl [Example L-234] | 34% | 
CC(NC(=O)c1cnc(N)c(OCc2c(Cl)cccc2Cl)c1)c1ccc(O)cc1 [Example L-235] | 36% | 
Nc1ncc(C(=O)N2CCCC(O)C2)cc1OCc1c(Cl)cccc1Cl [Example L-236] | 33% | 
CN(CC#N)C(=O)c1cnc(N)c(OCc2c(Cl)cccc2Cl)c1 [Example L-237] | 30% | 
CC(O)CCNC(=O)c1cnc(N)c(OCc2c(Cl)cccc2Cl)c1 [Example L-238] | 35% | 
Nc1ncc(C(=O)NCCO)cc1OCc1c(Cl)cccc1Cl [Example L-239] | 34% | 

SMILES | inhibition at 1 pM [1] | inhibition at 1 pM
Nc1ncc(C(=O)NCCc2ccncc2)cc1OCc1c(Cl)cccc1Cl [Example L-240] | 30% | 
CCCC(CO)NC(=O)c1cnc(N)c(OCc2c(Cl)cccc2Cl)c1 [Example L-241] | 30% | 
Nc1ncc(C(=O)NCCOc2ccccc2)cc1OCc1c(Cl)cccc1Cl [Example L-242] | 66% | 
C[C@@H]1CN(C(=O)c2cnc(N)c(OCc3c(Cl)cccc3Cl)c2)C[C@H](C)O1 [Example L-243] | 32% | 
CN(C)C1CCN(C(=O)c2cnc(N)c(OCc3c(Cl)cccc3Cl)c2)C1 [Example L-244] | 33% | 
Nc1ncc(C(=O)NCc2ccc(F)cc2F)cc1OCc1c(Cl)cccc1Cl [Example L-245] | 33% | 
CN(CCC(O)c1ccccc1)C(=O)c1cnc(N)c(OCc2c(Cl)cccc2Cl)c1 [Example L-246] | 28% | 
COc1cc(CCNC(=O)c2cnc(N)c(OCc3c(Cl)cccc3Cl)c2)cc(OC)c1O [Example L-247] | 25% | 
COCCN1CCN(C(=O)c2cnc(N)c(OCc3c(Cl)cccc3Cl)c2)CC1 [Example L-248] | 27% | 
Nc1ncc(C(=O)NCc2cccc(OC(F)F)c2)cc1OCc1c(Cl)cccc1Cl [Example L-249] | 32% | 
Nc1ncc(C(=O)NCc2ccc(F)cc2Cl)cc1OCc1c(Cl)cccc1Cl [Example L-250] | 37% | 
Nc1ncc(C(=O)NCC(O)c2ccc(O)cc2)cc1OCc1c(Cl)cccc1Cl [Example L-251] | 29% | 
Nc1ncc(C(=O)N2CCC(C(=O)c3ccccc3)CC2)cc1OCc1c(Cl)cccc1Cl [Example L-252] | 32% | 
NC(=O)CCNC(=O)c1cnc(N)c(OCc2c(Cl)cccc2Cl)c1 [Example L-253] | 28% | 
CC(CN(C)C)NC(=O)c1cnc(N)c(OCc2c(Cl)cccc2Cl)c1 [Example L-254] | 45% | 
CCCOCCNC(=O)c1cnc(N)c(OCc2c(Cl)cccc2Cl)c1 [Example L-255] | 45% | 
CC(C)OCCNC(=O)c1cnc(N)c(OCc2c(Cl)cccc2Cl)c1 [Example L-256] | 46% | 
Nc1ncc(C(=O)N2CCC(CO)CC2)cc1OCc1c(Cl)cccc1Cl [Example L-257] | 43% | 
Nc1ncc(C(=O)N2CCC(CCO)CC2)cc1OCc1c(Cl)cccc1Cl [Example L-258] | 45% | 
CN(CC(N)=O)C(=O)c1cnc(N)c(OCc2c(Cl)cccc2Cl)c1 [Example L-259] | 39% | 
CC1CCC(=O)C(NC(=O)c2cnc(N)c(OCc3c(Cl)cccc3Cl)c2)C1 [Example L-260] | 40% | 
Nc1ncc(C(=O)N2CCN(CCCN3CCOCC3)CC2)cc1OCc1c(Cl)cccc1Cl [Example L-261] | 40% | 
CN(C)C(=O)CN1CCN(C(=O)c2cnc(N)c(OCc3c(Cl)cccc3Cl)c2)CC1 [Example L-262] | 42% | 
Nc1ncc(C(=O)NCCN2CCN(Cc3ccccc3)CC2)cc1OCc1c(Cl)cccc1Cl [Example L-263] | 36% | 
Nc1ncc(C(=O)NC[C@H]2CC[C@H](c3nc4ccccc4[nH]3)CC2)cc1OCc1c(Cl)cccc1Cl [Example L-264] | 38% | 
Nc1ncc(C(=O)NCc2ccc(C(F)(F)F)nc2)cc1OCc1c(Cl)cccc1Cl [Example L-265] | 17% | 
CN(C)C(=O)c1cnc(N)c(OCc2c(Cl)cccc2Cl)c1 [Example L-266] | 10% | 

SMILES | inhibition at 1 pM [1] | inhibition at 1 pM
Nc1ncc(C(=O)N2CCN(c3ccc(Br)cn3)CC2)cc1OCc1c(Cl)cccc1Cl [Example L-267] | 5% | 
Cc1ccc(N2CCN(CCCCNC(=O)c3cnc(N)c(OCc4c(Cl)cccc4Cl)c3)CC2)cc1 [Example L-268] | 15% | 
Nc1ncc(C(=O)N2CCS(=O)(=O)CC2)cc1OCc1c(Cl)cccc1Cl [Example L-269] | 10% | 
C[C@@H]1CCC[C@H](C)N1CCNC(=O)c1cnc(N)c(OCc2c(Cl)cccc2Cl)c1 [Example L-270] | 2% | 
Nc1ncc(C(=O)N[C@@H]2CCC[C@H]2OCc2ccccc2)cc1OCc1c(Cl)cccc1Cl [Example L-271] | 16% | 
Nc1ncc(C(=O)NC[C@]2(O)CC[C@H](c3ccccc3)CC2)cc1OCc1c(Cl)cccc1Cl [Example L-272] | 15% | 
Nc1ncc(C(=O)NCCc2cccc(O)c2)cc1OCc1c(Cl)cccc1Cl [Example L-273] | 17% | 
N#CCCN1CCN(C(=O)c2cnc(N)c(OCc3c(Cl)cccc3Cl)c2)CC1 [Example L-274] | 19% | 
Nc1ncc(C(=O)NCc2cc3cc[nH]c3cn2)cc1OCc1c(Cl)cccc1Cl [Example L-275] | 28% | 
Nc1ncc(C(=O)NCC(O)CN2CCC(Cc3ccccc3)CC2)cc1OCc1c(Cl)cccc1Cl [Example L-276] | 32% | 
Nc1ncc(C(=O)N2CCCN(Cc3ccc(F)cc3)CC2)cc1OCc1c(Cl)cccc1Cl [Example L-277] | 26% | 
Cc1ccc(F)c(CNC(=O)c2cnc(N)c(OCc3c(Cl)cccc3Cl)c2)c1F [Example L-278] | 31% | 
Nc1ncc(C(=O)NCc2c(F)cccc2F)cc1OCc1c(Cl)cccc1Cl [Example L-279] | 32% | 
Nc1ncc(C(=O)N2CCN(CC(=O)Nc3ccccn3)CC2)cc1OCc1c(Cl)cccc1Cl [Example L-280] | 56% | 
Nc1ncc(C(=O)N2CCN(Cc3cccc4ccccc34)CC2)cc1OCc1c(Cl)cccc1Cl [Example L-281] | 26% | 
CCS(=O)(=O)N1CCN(C(=O)c2cnc(N)c(OCc3c(Cl)cccc3Cl)c2)CC1 [Example L-282] | 22% | 
Nc1ncc(C(=O)N2CCC(N3CCCCC3=O)CC2)cc1OCc1c(Cl)cccc1Cl [Example L-283] | 26% | 
Nc1ncc(C(=O)N2CCC3(CCNC3=O)CC2)cc1OCc1c(Cl)cccc1Cl [Example L-284] | 27% | 
Nc1ncc(C(=O)N2CCNC(=O)CC2)cc1OCc1c(Cl)cccc1Cl [Example L-285] | 31% | 
Nc1ncc(C(=O)N2CCCC(C(=O)N3CCCC3)C2)cc1OCc1c(Cl)cccc1Cl [Example L-286] | 47% | 
Nc1ncc(C(=O)N2CCCC(C(=O)N3CCOCC3)C2)cc1OCc1c(Cl)cccc1Cl [Example L-287] | 21% | 
COCCNC(=O)C1CCCN(C(=O)c2cnc(N)c(OCc3c(Cl)cccc3Cl)c2)C1 [Example L-288] | 20% | 
CC(C)(O)c1ccc(CNC(=O)c2cnc(N)c(OCc3c(Cl)cccc3Cl)c2)cc1 [Example L-289] | 24% | 
Nc1ncc(C(=O)N2CCCC2c2ccncc2)cc1OCc1c(Cl)cccc1Cl [Example L-290] | 19% | 
Nc1ncc(C(=O)NCCc2nc3ccccc3s2)cc1OCc1c(Cl)cccc1Cl [Example L-291] | 26% | 
